# The NIST ThermoML archive (doi:10.1016/j.fluid.2009.11.017)
# ± gives the expanded uncertainty stated by the source.
# Conditions: Liquid, Ebulliometric method (Recirculating still)
vapor or sublimation pressure (344.79 K) [kPa],vapor or sublimation pressure (357.27 K) [kPa],vapor or sublimation pressure (365.3 K) [kPa],vapor or sublimation pressure (372.09 K) [kPa],vapor or sublimation pressure (377.89 K) [kPa],vapor or sublimation pressure (382.18 K) [kPa],vapor or sublimation pressure (386.25 K) [kPa],vapor or sublimation pressure (390.38 K) [kPa],vapor or sublimation pressure (394.05 K) [kPa],Compound,vapor or sublimation pressure (365.49 K) [kPa],vapor or sublimation pressure (376.75 K) [kPa],vapor or sublimation pressure (385.55 K) [kPa],vapor or sublimation pressure (392.87 K) [kPa],vapor or sublimation pressure (398.66 K) [kPa],vapor or sublimation pressure (404.09 K) [kPa],vapor or sublimation pressure (408.83 K) [kPa],vapor or sublimation pressure (413.06 K) [kPa],vapor or sublimation pressure (417.28 K) [kPa]
20.39 ± 0.35,32.09 ± 0.36,42.29 ± 0.37,52.61 ± 0.38,63.09 ± 0.39,71.89 ± 0.41,81.18 ± 0.42,91.67 ± 0.44,102.02 ± 0.45,C1CCSC1 [tetrahydrothiophene],–,–,–,–,–,–,–,–,–
–,–,–,–,–,–,–,–,–,"Cc1ccccc1C [1,2-dimethylbenzene]",20.4 ± 0.35,30.14 ± 0.35,40.2 ± 0.36,50.43 ± 0.37,60.03 ± 0.38,70.27 ± 0.4,80.41 ± 0.41,90.54 ± 0.43,101.85 ± 0.44
